Source: ChEMBL document CHEMBL6083190, “Synthesis and mechanistic study of Aβ42 C-terminus domain derived tetrapeptides that inhibit Alzheimer's Aβ-aggregation-induced neurotoxicity” (Bioorg Med Chem Lett, 2024)
Values belong to the molecule of their own block, whether it stands above or below them. Activity calls are given as the source filed them. No cut-off for these calls is given here. Non-standard residues stand in square brackets, D forms with d. Residues, ends and D or L forms follow the SMILES beside them. Aib = CC(C)(N)C(=O)O

What was measured:
[1] = molecular target: Amyloid-beta precursor protein (Homo sapiens) (UniProt P05067); assay: Inhibition of amyloid beta (1 to 42 ) (unknown origin) self-aggregation assessed as decrease in appearance of peak at m/z 685.4383 at 1:5 amyloid-beta:compound concentration ratio incubated for 72 hrs by HRMS-ESI analysis
[2] = molecular target: Amyloid-beta precursor protein (Homo sapiens) (UniProt P05067); assay: Inhibition of amyloid beta (1 to 42) (unknown origin) self-aggregation assessed as alpha-helix content at 1:5 amyloid-beta:compound concentration ratio incubated for 48 hrs by CD spectroscopy (reference value: 0 %); set-up: scale not given: the % may be the effect or the level left
[3] = molecular target: Amyloid-beta precursor protein (Homo sapiens) (UniProt P05067); assay: Inhibition of amyloid beta (1 to 42) (unknown origin) self aggregation at 2 uM by ThT fluorescence assay relative to control
[4] = molecular target: Amyloid-beta precursor protein (Homo sapiens) (UniProt P05067); assay: Inhibition of amyloid beta (1 to 42) (unknown origin) self-aggregation assessed as absence of fibrillar aggregates at 1:5 amyloid-beta:compound concentration ratio measured immediately by high-resolution transmission electron microscopic analysis
[5] = molecular target: Amyloid-beta precursor protein (Homo sapiens) (UniProt P05067); assay: Inhibition of amyloid beta (1 to 40) (unknown origin) self-aggregation assessed as beta-sheet content at 1:5 amyloid-beta:compound concentration ratio incubated for 48 hrs by CD spectroscopy (reference value: 59.7 %); set-up: scale not given: the % may be the effect or the level left
[6] = molecular target: Amyloid-beta precursor protein (Homo sapiens) (UniProt P05067); assay: Inhibition of amyloid beta (1 to 42) (unknown origin) self aggregation at 2 to 10 uM by ThT fluorescence assay; settings: dose 2-10 µM
[7] = molecular target: Amyloid-beta precursor protein (Homo sapiens) (UniProt P05067); assay: Inhibition of amyloid beta (1 to 40)/amyloid beta (1 to 42) (unknown origin) self-aggregation assessed as random coil content at 1:5 amyloid-beta:compound concentration ratio incubated for 48 hrs by CD spectroscopy (reference value: 0 %); set-up: scale not given: the % may be the effect or the level left
[8] = molecular target: Amyloid-beta precursor protein (Homo sapiens) (UniProt P05067); assay: Inhibition of amyloid beta (1 to 42) (unknown origin) self-aggregation assessed as absence of fibrillar aggregates at 1:5 amyloid-beta:compound concentration ratio incubated for 72 hrs by scanning transmission electron microscopic analysis
[9] = molecular target: Amyloid-beta precursor protein (Homo sapiens) (UniProt P05067); assay: Inhibition of amyloid beta (1 to 40)/amyloid beta (1 to 42) (unknown origin) self-aggregation assessed as alpha-helix content at 1:5 amyloid-beta:compound concentration ratio incubated for 48 hrs by CD spectroscopy (reference value: 0 %); set-up: scale not given: the % may be the effect or the level left
[10] = Inhibition of amyloid beta-induced neurotoxicity in rat PC-12 cells at 10 uM by MTT assay relative to control; format: functional
[11] = molecular target: Amyloid-beta precursor protein (Homo sapiens) (UniProt P05067); assay: Inhibition of amyloid beta (1 to 42) (unknown origin) self aggregation at 10 uM by ThT fluorescence assay relative to control
[12] = Inhibition of amyloid beta-induced neurotoxicity in rat PC-12 cells at 2 uM by MTT assay relative to control; format: functional
[13] = molecular target: Amyloid-beta precursor protein (Homo sapiens) (UniProt P05067); assay: Inhibition of amyloid beta (1 to 42 ) (unknown origin) self-aggregation assessed as appearance of peak at m/z 1224.4239 at 1:5 amyloid-beta:compound concentration ratio incubated for 72 hrs by HRMS-ESI analysis
[14] = Cytotoxicity against rat PC-12 cells assessed as cell viability at 20 uM by MTT assay relative to control; format: toxicity, cell-based; settings: read-out: Activity
[15] = molecular target: Amyloid-beta precursor protein (Homo sapiens) (UniProt P05067); assay: Inhibition of amyloid beta (1 to 42) (unknown origin) self-aggregation assessed as absence of fibrillar aggregates at 1:5 amyloid-beta:compound concentration ratio measured immediately by scanning transmission electron microscopic analysis
[16] = molecular target: Amyloid-beta precursor protein (Homo sapiens) (UniProt P05067); assay: Inhibition of amyloid beta (1 to 42) (unknown origin) self-aggregation assessed as random coil content at 1:5 amyloid-beta:compound concentration ratio incubated for 48 hrs by CD spectroscopy (reference value: 0 %); set-up: scale not given: the % may be the effect or the level left
[17] = molecular target: Amyloid-beta precursor protein (Homo sapiens) (UniProt P05067); assay: Inhibition of amyloid beta (1 to 42 ) (unknown origin) self-aggregation assessed as appearance of peak at m/z 722.4940 at 1:5 amyloid-beta:compound concentration ratio incubated for 72 hrs by HRMS-ESI analysis
[18] = molecular target: Amyloid-beta precursor protein (Homo sapiens) (UniProt P05067); assay: Inhibition of amyloid beta (1 to 42 ) (unknown origin) self-aggregation assessed as appearance of peak at m/z 507.3270 at 1:5 amyloid-beta:compound concentration ratio incubated for 72 hrs by HRMS-ESI analysis
[19] = molecular target: Amyloid-beta precursor protein (Homo sapiens) (UniProt P05067); assay: Inhibition of amyloid beta (1 to 42 ) (unknown origin) self aggregation in liposome-mimicked rat neuronal membrane assessed as fluorescence quenching at 1:5 amyloid-beta:compound concentration ratio incubated for 72 hrs by ANS fluorescence spectra; format: cell membranes; settings: Neuron
[20] = molecular target: Amyloid-beta precursor protein (Homo sapiens) (UniProt P05067); assay: Inhibition of amyloid beta (1 to 40) (unknown origin) self-aggregation assessed as random coil content at 1:5 amyloid-beta:compound concentration ratio incubated for 48 hrs by CD spectroscopy (reference value: 40.3 %); set-up: scale not given: the % may be the effect or the level left
[21] = molecular target: Amyloid-beta precursor protein (Homo sapiens) (UniProt P05067); assay: Inhibition of amyloid beta (1 to 40) (unknown origin) self-aggregation assessed as beta-turn content at 1:5 amyloid-beta:compound concentration ratio incubated for 48 hrs by CD spectroscopy (reference value: 0 %); set-up: scale not given: the % may be the effect or the level left
PC-12 [22] = assay: Protection against amyloid beta-induced neurotoxicity in rat PC-12 cells assessed as cell viability at 10 uM by MTT assay (reference value: 63.6 %); format: functional; settings: read-out: Activity
[23] = Inhibition of amyloid beta-induced neurotoxicity in rat PC-12 cells at 4 uM by MTT assay relative to control; format: functional
[24] = molecular target: Amyloid-beta precursor protein (Homo sapiens) (UniProt P05067); assay: Inhibition of amyloid beta (1 to 40) (unknown origin) self-aggregation assessed as alpha-helix content at 1:5 amyloid-beta:compound concentration ratio incubated for 48 hrs by CD spectroscopy (reference value: 0 %); set-up: scale not given: the % may be the effect or the level left
[25] = molecular target: Amyloid-beta precursor protein (Homo sapiens) (UniProt P05067); assay: Inhibition of amyloid beta (1 to 42) (unknown origin) self-aggregation measured for 7 days by ThT fluorescence assay; settings: time 7.0 day
PC-12 [26] = assay: Protection against amyloid beta-induced neurotoxicity in rat PC-12 cells assessed as cell viability at 4 uM by MTT assay (reference value: 63.6 %); format: functional; settings: read-out: Activity
[27] = molecular target: Amyloid-beta precursor protein (Homo sapiens) (UniProt P05067); assay: Inhibition of amyloid beta (1 to 42) (unknown origin) self-aggregation assessed as beta-sheet content at 1:5 amyloid-beta:compound concentration ratio incubated for 48 hrs by CD spectroscopy (reference value: 55.2 %); set-up: scale not given: the % may be the effect or the level left
PC-12 [28] = assay: Protection against amyloid beta-induced neurotoxicity in rat PC-12 cells assessed as cell viability at 2 uM by MTT assay (reference value: 63.6 %); format: functional; settings: read-out: Activity
[29] = molecular target: Amyloid-beta precursor protein (Homo sapiens) (UniProt P05067); assay: Inhibition of amyloid beta (1 to 42) (unknown origin) self-aggregation assessed as beta-turn content at 1:5 amyloid-beta:compound concentration ratio incubated for 48 hrs by CD spectroscopy (reference value: 44.8 %); set-up: scale not given: the % may be the effect or the level left
[30] = molecular target: Amyloid-beta precursor protein (Homo sapiens) (UniProt P05067); assay: Inhibition of amyloid beta (1 to 40)/amyloid beta (1 to 42) (unknown origin) self-aggregation assessed as beta-sheet content at 1:5 amyloid-beta:compound concentration ratio incubated for 48 hrs by CD spectroscopy (reference value: 70.8 %); set-up: scale not given: the % may be the effect or the level left
[31] = molecular target: Amyloid-beta precursor protein (Homo sapiens) (UniProt P05067); assay: Inhibition of amyloid beta (1 to 40)/amyloid beta (1 to 42) (unknown origin) self-aggregation assessed as beta-turn content at 1:5 amyloid-beta:compound concentration ratio incubated for 48 hrs by CD spectroscopy (reference value: 29.2 %); set-up: scale not given: the % may be the effect or the level left
[32] = molecular target: Amyloid-beta precursor protein (Homo sapiens) (UniProt P05067); assay: Inhibition of amyloid beta (1 to 42) (unknown origin) self-aggregation assessed as Z-average value measured after 7 days by dynamic light scattering analysis; settings: time 7.0 day
[33] = Cytotoxicity against rat PC-12 cells assessed as cell viability at 50 uM by MTT assay relative to control; format: toxicity, cell-based; settings: read-out: Activity
[34] = molecular target: Amyloid-beta precursor protein (Homo sapiens) (UniProt P05067); assay: Inhibition of amyloid beta (1 to 42) (unknown origin) self-aggregation assessed as reduction in polydispersity index measured after 7 days by dynamic light scattering analysis; settings: time 7.0 day
[35] = molecular target: Amyloid-beta precursor protein (Homo sapiens) (UniProt P05067); assay: Inhibition of amyloid beta (1 to 42) (unknown origin) self-aggregation assessed as absence of fibrillar aggregates at 1:5 amyloid-beta:compound concentration ratio incubated for 72 hrs by high-resolution transmission electron microscopic analysis
SH-SY5Y = assay: Inhibition of amyloid beta (1 to 42)-induced toxicity in human SH-SY5Y cells assessed as cell survival at 50 uM incubated for 24 hrs by MTT assay relative to control; format: functional; settings: read-out: Survival

Sequence of Amyloid-beta precursor protein (Homo sapiens) (P05067 whole entry): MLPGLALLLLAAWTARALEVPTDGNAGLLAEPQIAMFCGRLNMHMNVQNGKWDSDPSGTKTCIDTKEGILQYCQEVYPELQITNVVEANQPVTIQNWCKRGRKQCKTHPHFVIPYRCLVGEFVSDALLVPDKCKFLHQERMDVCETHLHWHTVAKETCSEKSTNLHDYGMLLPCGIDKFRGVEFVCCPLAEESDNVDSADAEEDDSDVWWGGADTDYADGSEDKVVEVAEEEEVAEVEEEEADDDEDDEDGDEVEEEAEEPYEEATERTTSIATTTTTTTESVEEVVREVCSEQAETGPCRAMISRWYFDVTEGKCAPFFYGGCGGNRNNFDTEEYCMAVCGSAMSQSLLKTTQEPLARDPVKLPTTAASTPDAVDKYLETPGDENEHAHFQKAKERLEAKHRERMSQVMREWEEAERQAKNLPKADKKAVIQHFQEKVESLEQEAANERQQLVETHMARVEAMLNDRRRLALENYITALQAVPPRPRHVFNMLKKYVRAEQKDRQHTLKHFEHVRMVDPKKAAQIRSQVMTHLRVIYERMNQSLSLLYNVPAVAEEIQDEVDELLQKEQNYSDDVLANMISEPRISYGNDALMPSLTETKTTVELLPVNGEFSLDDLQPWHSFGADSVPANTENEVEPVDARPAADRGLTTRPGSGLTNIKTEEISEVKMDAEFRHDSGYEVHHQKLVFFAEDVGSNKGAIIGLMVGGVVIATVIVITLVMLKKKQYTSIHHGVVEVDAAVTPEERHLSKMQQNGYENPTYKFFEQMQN

- inhibition [1]: Active; Peak Corresponds To Aggregates
- Activity [2]: 14.4%
- inhibition [3]: 62.7%
- inhibition [4]: Active
- Activity [5]: 0%
- inhibition [6]: Active
- Activity [7]: 25.7%
- inhibition [8]: Active
- Activity [9]: 23.9%
- inhibition [11]: 80.8%
- inhibition [15]: Active
- Activity [16]: 36.6%
- Activity [20]: 38.1%
- Activity [21]: 40.3%
- Activity [24]: 21.6%
- inhibition [25]: Active
- Activity [27]: 0%
- Activity [29]: 49%
- Activity [30]: 1.9%
- Activity [31]: 48.4%
- inhibition [32]: Active
- inhibition [34]: Active
- inhibition [35]: Active
Molecule: CC[C@H](C)[C@H](NC(=O)[C@H](C)N)C(=O)NC(C)(C)C(=O)N[C@H](C(N)=O)C(C)C (H-AI[Aib]V-NH2)
- inhibition at 10 µM [10]: 73%
- inhibition at 2 µM [12]: 7%
- inhibition [13]: Active; Peaks Corresponds To [(Amyloidbeta (21 To 42) + M)4+ ]
- viability at 20 µM [14]: 98.5%
- inhibition [17]: Active; Peaks Corresponds To [Amyloidbeta (1 To 42) + M + Na]7+
- inhibition [18]: Active; Peaks Corresponds To [Amyloidbeta (1 To 42) + M]4+
- inhibition [19]: Active; Blue Shift Of 2 To 3 Nm And Isoemissive Point At ~427 Nm Observed
- viability at 10 µM (PC-12 [22]): 90.2%
- inhibition at 4 µM [23]: 53%
- viability at 4 µM (PC-12 [26]): 82.8%
- viability at 2 µM (PC-12 [28]): 66.1%
- viability at 50 µM [33]: 97.9%

Molecule: H-RIIGL-NH2
- viability at 50 µM (SH-SY5Y): 84%
